Here are results for six compounds from publication PMC12621043, “Un-LOK-ing a New Approach for Conformational Selective Targeting of STK10 (LOK)” (ACS Medicinal Chemistry Letters, 2025).

One experiment concerns the target T1, PCTK1A (Homo sapiens, UniProt Q00536).
T1 construct: purchased in-house DSF kinase panel (SGC-style construct names; the trailing letter is the construct ID)
In words: DSF Tm panel. It counts as binding. To be noted: 10 μM compound.

For another experiment, the target named is T2, AAK1 (AAK1A) (Homo sapiens, UniProt Q2M2I8).
T2 construct: purchased in-house DSF kinase panel (SGC-style construct names; the trailing letter is the construct ID)
Nature of the experiment: DSF Tm panel. It counts as binding. To be noted: 10 μM compound.

The target of another experiment is T3, MST3A (Homo sapiens, UniProt Q9Y6E0).
T3 construct: purchased in-house DSF kinase panel (SGC-style construct names; the trailing letter is the construct ID)
Nature of the experiment: DSF Tm panel. The settings on record: 10 μM compound. In kind it is binding.

A further experiment has as its target T4, CLK1A (Homo sapiens, UniProt P49759).
T4 construct: purchased in-house DSF kinase panel (SGC-style construct names; the trailing letter is the construct ID)
Nature of the experiment: DSF Tm panel. It counts as binding. To be noted: 10 μM compound.

A further experiment addresses T5, MST4A (Homo sapiens, UniProt Q9P289).
T5 construct: purchased in-house DSF kinase panel (SGC-style construct names; the trailing letter is the construct ID)
In words: DSF Tm panel. It counts as binding. To be noted: 10 μM compound.

A further experiment addresses SLK (Homo sapiens, UniProt Q9H2G2). Nature of the experiment: PhosphoSens in vitro activity assay. To be noted: ATP 150 μM. It counts as biochemical.
In another experiment the target is T6, NEK1A (Homo sapiens, UniProt Q96PY6).
T6 construct: purchased in-house DSF kinase panel (SGC-style construct names; the trailing letter is the construct ID)
T6 sequence (Q96PY6 1-328): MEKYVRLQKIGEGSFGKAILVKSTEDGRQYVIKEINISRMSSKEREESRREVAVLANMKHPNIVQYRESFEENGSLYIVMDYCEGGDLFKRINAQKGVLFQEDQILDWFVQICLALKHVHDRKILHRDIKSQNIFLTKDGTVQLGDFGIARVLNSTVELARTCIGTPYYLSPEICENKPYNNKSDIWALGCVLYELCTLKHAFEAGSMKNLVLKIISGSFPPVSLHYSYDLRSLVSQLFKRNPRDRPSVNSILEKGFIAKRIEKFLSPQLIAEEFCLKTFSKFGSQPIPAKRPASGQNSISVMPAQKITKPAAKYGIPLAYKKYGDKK
Nature of the experiment: DSF Tm panel. In kind it is binding. The settings on record: 10 μM compound.

The target in the next experiment is T7, ABL1 (ABL1A) (Homo sapiens, UniProt P00519).
T7 construct: purchased in-house DSF kinase panel (SGC-style construct names; the trailing letter is the construct ID)
T7 sequence (P00519 229-512): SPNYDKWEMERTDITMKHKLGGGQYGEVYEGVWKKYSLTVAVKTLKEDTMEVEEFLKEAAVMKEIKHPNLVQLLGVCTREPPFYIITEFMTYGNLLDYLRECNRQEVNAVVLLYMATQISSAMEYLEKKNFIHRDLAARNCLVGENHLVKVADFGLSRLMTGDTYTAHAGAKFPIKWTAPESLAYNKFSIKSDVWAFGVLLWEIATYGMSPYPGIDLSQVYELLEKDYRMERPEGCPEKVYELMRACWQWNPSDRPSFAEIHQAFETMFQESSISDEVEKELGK
Nature of the experiment: DSF Tm panel. In kind it is binding. The settings on record: 10 μM compound.

In a further experiment the target is T8, DMPK1A (Homo sapiens, UniProt Q09013).
T8 construct: purchased in-house DSF kinase panel (SGC-style construct names; the trailing letter is the construct ID)
T8 sequence (Q09013 1-629): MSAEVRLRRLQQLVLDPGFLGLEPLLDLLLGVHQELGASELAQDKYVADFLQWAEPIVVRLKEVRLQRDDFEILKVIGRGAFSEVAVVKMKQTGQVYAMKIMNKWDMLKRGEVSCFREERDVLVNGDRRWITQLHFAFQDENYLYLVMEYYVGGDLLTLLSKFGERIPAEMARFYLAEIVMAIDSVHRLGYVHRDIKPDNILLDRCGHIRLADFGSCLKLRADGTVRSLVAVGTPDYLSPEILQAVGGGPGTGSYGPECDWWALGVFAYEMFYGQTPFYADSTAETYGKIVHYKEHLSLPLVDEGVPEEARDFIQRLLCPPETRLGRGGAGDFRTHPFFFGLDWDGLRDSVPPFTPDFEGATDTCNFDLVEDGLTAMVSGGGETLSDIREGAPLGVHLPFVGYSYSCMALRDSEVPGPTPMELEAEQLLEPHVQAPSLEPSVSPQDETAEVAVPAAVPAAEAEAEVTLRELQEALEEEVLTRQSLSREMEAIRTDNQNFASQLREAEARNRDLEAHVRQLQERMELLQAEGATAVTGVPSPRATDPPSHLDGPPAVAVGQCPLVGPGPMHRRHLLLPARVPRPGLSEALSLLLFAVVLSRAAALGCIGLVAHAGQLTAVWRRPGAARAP
Nature of the experiment: DSF Tm panel. It counts as binding. The settings on record: 10 μM compound.

The target in another experiment is T9, MELKA (Homo sapiens, UniProt Q14680).
T9 construct: purchased in-house DSF kinase panel (SGC-style construct names; the trailing letter is the construct ID)
Nature of the experiment: DSF Tm panel. It counts as binding. To be noted: 10 μM compound.

For the next experiment, the target named is T10, GAKA (Homo sapiens, UniProt O14976).
T10 construct: purchased in-house DSF kinase panel (SGC-style construct names; the trailing letter is the construct ID)
T10 sequence (O14976 14-351): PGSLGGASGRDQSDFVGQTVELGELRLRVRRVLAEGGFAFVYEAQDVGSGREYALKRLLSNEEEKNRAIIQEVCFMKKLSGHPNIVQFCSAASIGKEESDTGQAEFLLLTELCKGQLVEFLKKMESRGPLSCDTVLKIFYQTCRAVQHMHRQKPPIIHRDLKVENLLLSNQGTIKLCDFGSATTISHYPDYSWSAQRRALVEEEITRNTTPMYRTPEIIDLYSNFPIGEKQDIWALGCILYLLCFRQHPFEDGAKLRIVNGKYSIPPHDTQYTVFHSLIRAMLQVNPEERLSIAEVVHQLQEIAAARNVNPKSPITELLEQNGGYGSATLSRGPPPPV
Nature of the experiment: DSF Tm panel. It counts as binding. To be noted: 10 μM compound.

For the next experiment, the target named is T11, MAP2K1A (Homo sapiens, UniProt Q02750).
T11 construct: purchased in-house DSF kinase panel (SGC-style construct names; the trailing letter is the construct ID)
In words: DSF Tm panel. In kind it is binding. The settings on record: 10 μM compound.

The target in the next experiment is T12, STK10 (Homo sapiens, UniProt O94804).
T12 construct: purchased in-house DSF kinase panel (SGC-style construct names; the trailing letter is the construct ID)
In words: DSF Tm panel. It counts as binding. To be noted: 10 μM compound.

Each structure is given as a SMILES string.

T2 sequence (Q2M2I8 27-365): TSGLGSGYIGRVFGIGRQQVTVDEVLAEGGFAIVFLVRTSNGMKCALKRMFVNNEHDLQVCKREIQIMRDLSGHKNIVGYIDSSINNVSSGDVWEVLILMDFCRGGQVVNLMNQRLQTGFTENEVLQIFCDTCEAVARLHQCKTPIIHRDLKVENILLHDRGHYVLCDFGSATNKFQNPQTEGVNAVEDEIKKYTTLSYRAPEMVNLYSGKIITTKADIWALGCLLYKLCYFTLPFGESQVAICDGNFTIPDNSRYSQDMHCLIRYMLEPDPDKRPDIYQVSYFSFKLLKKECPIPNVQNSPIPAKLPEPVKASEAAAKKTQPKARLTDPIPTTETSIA
T11 sequence (Q02750 68-361): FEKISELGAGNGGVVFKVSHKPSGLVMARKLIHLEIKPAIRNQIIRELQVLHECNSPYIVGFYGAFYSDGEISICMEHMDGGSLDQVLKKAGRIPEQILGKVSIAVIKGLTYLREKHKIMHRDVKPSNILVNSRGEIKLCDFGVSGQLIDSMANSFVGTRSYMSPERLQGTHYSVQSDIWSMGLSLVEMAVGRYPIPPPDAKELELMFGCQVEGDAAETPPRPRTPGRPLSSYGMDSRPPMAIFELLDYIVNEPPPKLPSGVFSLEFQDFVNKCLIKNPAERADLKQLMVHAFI
T4 sequence (P49759 148-484): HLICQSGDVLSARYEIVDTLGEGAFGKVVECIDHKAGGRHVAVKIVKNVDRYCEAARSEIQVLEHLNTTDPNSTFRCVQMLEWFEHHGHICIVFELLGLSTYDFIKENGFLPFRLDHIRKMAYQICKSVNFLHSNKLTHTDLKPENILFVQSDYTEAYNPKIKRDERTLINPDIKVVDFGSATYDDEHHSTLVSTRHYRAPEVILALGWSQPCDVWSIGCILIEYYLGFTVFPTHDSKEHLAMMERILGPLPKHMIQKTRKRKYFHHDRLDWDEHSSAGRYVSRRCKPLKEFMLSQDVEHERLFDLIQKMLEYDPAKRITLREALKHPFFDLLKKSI
T9 sequence (Q14680 1-340): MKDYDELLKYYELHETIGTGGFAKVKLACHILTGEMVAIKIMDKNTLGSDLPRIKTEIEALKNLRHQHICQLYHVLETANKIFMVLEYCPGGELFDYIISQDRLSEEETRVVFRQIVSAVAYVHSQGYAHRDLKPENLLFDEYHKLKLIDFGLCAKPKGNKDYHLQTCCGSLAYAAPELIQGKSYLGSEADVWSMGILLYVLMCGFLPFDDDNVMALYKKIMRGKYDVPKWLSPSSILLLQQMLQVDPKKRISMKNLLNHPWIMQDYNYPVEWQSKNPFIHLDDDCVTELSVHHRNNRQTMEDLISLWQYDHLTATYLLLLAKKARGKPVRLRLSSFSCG
T5 sequence (Q9P289 1-300): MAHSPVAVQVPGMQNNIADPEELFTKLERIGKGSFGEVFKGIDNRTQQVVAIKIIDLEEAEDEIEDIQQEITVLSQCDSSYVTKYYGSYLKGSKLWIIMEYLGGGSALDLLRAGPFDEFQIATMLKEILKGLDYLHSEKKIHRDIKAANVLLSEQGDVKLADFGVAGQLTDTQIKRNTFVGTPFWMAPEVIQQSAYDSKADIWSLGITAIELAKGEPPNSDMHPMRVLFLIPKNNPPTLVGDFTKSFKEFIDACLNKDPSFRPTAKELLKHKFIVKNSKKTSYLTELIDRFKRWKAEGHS
T3 sequence (Q9Y6E0 whole entry): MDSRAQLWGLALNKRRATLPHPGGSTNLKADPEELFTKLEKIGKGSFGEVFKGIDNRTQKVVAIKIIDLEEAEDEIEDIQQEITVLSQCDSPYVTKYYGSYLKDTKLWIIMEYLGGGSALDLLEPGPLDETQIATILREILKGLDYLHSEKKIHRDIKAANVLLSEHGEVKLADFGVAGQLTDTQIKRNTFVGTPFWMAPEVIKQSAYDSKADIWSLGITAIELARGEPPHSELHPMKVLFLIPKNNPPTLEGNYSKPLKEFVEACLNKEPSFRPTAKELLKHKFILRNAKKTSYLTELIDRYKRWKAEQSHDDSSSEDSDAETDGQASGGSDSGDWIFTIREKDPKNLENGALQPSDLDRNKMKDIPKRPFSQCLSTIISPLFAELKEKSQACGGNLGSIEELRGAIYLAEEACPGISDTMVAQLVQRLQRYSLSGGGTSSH
T12 sequence (O94804 18-317 limits assumed): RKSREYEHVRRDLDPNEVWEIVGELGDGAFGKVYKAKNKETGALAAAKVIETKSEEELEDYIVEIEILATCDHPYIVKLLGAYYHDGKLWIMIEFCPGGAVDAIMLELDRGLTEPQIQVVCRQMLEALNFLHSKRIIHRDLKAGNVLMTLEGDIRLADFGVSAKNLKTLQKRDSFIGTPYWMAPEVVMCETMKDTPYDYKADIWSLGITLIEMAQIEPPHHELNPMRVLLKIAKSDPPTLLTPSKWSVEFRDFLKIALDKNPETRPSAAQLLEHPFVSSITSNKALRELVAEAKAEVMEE
T1 sequence (Q00536 163-478): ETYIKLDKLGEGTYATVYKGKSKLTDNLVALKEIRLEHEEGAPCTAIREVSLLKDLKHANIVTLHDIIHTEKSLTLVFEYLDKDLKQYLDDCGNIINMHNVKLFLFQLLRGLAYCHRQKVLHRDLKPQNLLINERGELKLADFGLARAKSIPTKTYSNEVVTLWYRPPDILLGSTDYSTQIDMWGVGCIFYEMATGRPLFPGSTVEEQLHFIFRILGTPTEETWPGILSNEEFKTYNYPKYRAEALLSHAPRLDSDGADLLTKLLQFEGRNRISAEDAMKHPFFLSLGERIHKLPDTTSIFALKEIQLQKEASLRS

By ΔTm is commonly meant the shift of the melting midpoint relative to a reference. Usually IC50 stands for the midpoint of a concentration-inhibition curve. High values mean weaker potency in that assay, low ones greater potency in that assay. `O=C(NCc1ccccc1)Nc1ccc2cc1OCCOCCNc1ccn3ncc-2c3n1` [compound 16]: the ΔTm at 10 µM is 1.8 °C at PCTK1A; 8.3 °C on AAK1 (AAK1A); 1.5 °C at MST3A; 3.4 °C on CLK1A; 1.3 °C at MST4A; 0.1 °C at NEK1A. The ΔTm at 10 µM on ABL1 (ABL1A) is 1.2 °C; at DMPK1A, 0.3 °C; on MELKA, 2 °C; on GAKA it was 6.1 °C; at MAP2K1A, -0.1 °C; at STK10, 6.9 °C. For the same compound, on SLK, the IC50 amounted to 9.36 ± 1.77 µM.

With `O=C(NCc1ccccc1Cl)Nc1ccc2cc1OCCOCCNc1ccn3ncc-2c3n1` [compound 17], the ΔTm at 10 µM was 2.5 °C on PCTK1A; 7 °C on AAK1 (AAK1A); 0.7 °C at MST3A; 4.5 °C on CLK1A; 0.7 °C on MST4A; 0.2 °C at NEK1A. The ΔTm at 10 µM was 1.7 °C at ABL1 (ABL1A); -0.1 °C on DMPK1A; 2.4 °C on MELKA; 4.8 °C at GAKA; -0.2 °C on MAP2K1A; 8.5 °C on STK10. The IC50 at SLK worked out at 6.83 ± 1.58 µM.

`O=C(NCc1cccc(Cl)c1)Nc1ccc2cc1OCCOCCNc1ccn3ncc-2c3n1` [compound 18]: the ΔTm at 10 µM at PCTK1A is 1.3 °C; on AAK1 (AAK1A), 5.5 °C; at MST3A it was 0.7 °C; at CLK1A it was 2.9 °C; at MST4A it was 0.8 °C; on NEK1A, 0.2 °C. The ΔTm at 10 µM on ABL1 (ABL1A) was 1.8 °C; at DMPK1A, 0.1 °C; at MELKA, 1.5 °C; on GAKA, 4.1 °C; on MAP2K1A it was 0.2 °C; at STK10, 9.4 °C. Also, inhibition against SLK was half-maximal at 5.93 ± 0.76 µM (IC50).

Consider `O=C(NCc1ccc(C(F)(F)F)cc1)Nc1ccc2cc1OCCOCCNc1ccn3ncc-2c3n1` [compound 28], for which the thermal shift (ΔTm) at 10 µM at PCTK1A was 1 °C; at AAK1 (AAK1A), 4.7 °C; on MST3A, -4.5 °C; on CLK1A it was 2.3 °C; on MST4A, 2.1 °C; on NEK1A, 0 °C. The ΔTm at 10 µM on ABL1 (ABL1A) came to 0.9 °C; on DMPK1A, 0.3 °C; on MELKA it was 0.9 °C; at GAKA, 5.1 °C; on MAP2K1A, 1 °C; on STK10, 9.9 °C.

In the case of `COc1ccc(CNC(=O)Nc2ccc3cc2OCCOCCNc2ccn4ncc-3c4n2)cc1` [compound 31], the shift in melting temperature (ΔTm) at 10 µM was 1.9 °C at PCTK1A; 6.7 °C on AAK1 (AAK1A); -5.3 °C at MST3A; 2.8 °C on CLK1A; 0.9 °C at MST4A; -0.4 °C on NEK1A. Besides, the ΔTm at 10 µM was determined as 1.7 °C on ABL1 (ABL1A); 1 °C at DMPK1A; 1.7 °C at MELKA; 6.2 °C on GAKA; 0.6 °C at MAP2K1A; 6 °C at STK10. Also, the “ΔTm STK10” value on STK10 (10 µM) was 6,7 °C.

On to `CN1CCN(C(=O)Nc2ccc3cc2OCCOCCNc2ccn4ncc-3c4n2)CC1` [compound 35], for which the ΔTm at 10 µM on PCTK1A was 1 °C; at AAK1 (AAK1A), 7.7 °C; at MST3A, 0.4 °C; on CLK1A it was 2.9 °C; at MST4A, -0.4 °C; on NEK1A, 0.4 °C. In addition, the ΔTm at 10 µM at ABL1 (ABL1A) is 1.4 °C; at DMPK1A it was 0.2 °C; at MELKA, 2.2 °C; at GAKA, 3.8 °C; at MAP2K1A, -0.2 °C; on STK10 it was 3.7 °C.
